In publication PMC10392092, “Structural and molecular basis for urea recognition by Prochlorococcus” (The Journal of Biological Chemistry, 2023):

Columns and labels:
Test in all cases: isothermal titration calorimetry
Type in all cases: binding
UrtA [1] = biological target: T1, UrtA (Prochlorococcus marinus, UniProt Q7V3V9, E146A)
T1 construct: 24-residue predicted signal peptide removed from 431-residue precursor (432 elsewhere in the source); C-terminal 6xHis tag, pET-22b, E. coli BL21(DE3); about 50 kDa; monomer; structure residues 38-431 described
T1 sequence (Q7V3V9 entry or part of it E146A): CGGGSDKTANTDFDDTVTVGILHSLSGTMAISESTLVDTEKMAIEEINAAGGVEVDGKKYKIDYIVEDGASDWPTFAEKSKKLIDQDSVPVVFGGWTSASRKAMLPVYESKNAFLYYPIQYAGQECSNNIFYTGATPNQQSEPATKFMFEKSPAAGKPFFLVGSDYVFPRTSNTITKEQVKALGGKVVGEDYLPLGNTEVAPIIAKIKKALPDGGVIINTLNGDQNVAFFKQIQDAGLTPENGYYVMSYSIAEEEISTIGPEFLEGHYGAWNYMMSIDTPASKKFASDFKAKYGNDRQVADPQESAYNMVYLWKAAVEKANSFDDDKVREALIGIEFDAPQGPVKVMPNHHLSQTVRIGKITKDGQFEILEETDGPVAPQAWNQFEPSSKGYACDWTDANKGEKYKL

UrtA [2] = biological target: T2, UrtA (Prochlorococcus marinus, UniProt Q7V3V9)
T2 construct: 24-residue predicted signal peptide removed from 431-residue precursor (432 elsewhere in the source); C-terminal 6xHis tag, pET-22b, E. coli BL21(DE3); about 50 kDa; monomer; structure residues 38-431 described
T2 sequence (Q7V3V9 25-431): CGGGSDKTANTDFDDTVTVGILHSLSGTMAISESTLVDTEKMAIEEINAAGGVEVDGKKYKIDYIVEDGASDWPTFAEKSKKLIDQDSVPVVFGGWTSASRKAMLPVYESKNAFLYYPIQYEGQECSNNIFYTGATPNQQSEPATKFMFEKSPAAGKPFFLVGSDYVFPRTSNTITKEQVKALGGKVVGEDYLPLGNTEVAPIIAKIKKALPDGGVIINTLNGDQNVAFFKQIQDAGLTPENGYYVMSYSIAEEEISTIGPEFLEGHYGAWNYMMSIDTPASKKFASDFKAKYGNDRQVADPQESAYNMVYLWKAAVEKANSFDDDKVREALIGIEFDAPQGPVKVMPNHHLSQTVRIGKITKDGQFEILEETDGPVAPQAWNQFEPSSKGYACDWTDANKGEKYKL

UrtA [3] = biological target: T3, UrtA (Prochlorococcus marinus, UniProt Q7V3V9, S274A)
T3 construct: 24-residue predicted signal peptide removed from 431-residue precursor (432 elsewhere in the source); C-terminal 6xHis tag, pET-22b, E. coli BL21(DE3); about 50 kDa; monomer; structure residues 38-431 described
T3 sequence (Q7V3V9 entry or part of it S274A): as the sequence (Q7V3V9 entry or part of it E146A) above, with A122E, S250A counted along it

UrtA [4] = biological target: T4, UrtA (Prochlorococcus marinus, UniProt Q7V3V9, W120A); details: pH 8.0, 20 mM Tris-HCl, 200 mM NaCl, 25 °C
T4 construct: 24-residue predicted signal peptide removed from 431-residue precursor (432 elsewhere in the source); C-terminal 6xHis tag, pET-22b, E. coli BL21(DE3); about 50 kDa; monomer; structure residues 38-431 described
T4 sequence (Q7V3V9 entry or part of it W120A): as the sequence (Q7V3V9 entry or part of it E146A) above, with W96A, A122E counted along it

UrtA [5] = biological target: T5, UrtA (Prochlorococcus marinus, UniProt Q7V3V9, Y141A)
T5 construct: 24-residue predicted signal peptide removed from 431-residue precursor (432 elsewhere in the source); C-terminal 6xHis tag, pET-22b, E. coli BL21(DE3); about 50 kDa; monomer; structure residues 38-431 described
T5 sequence (Q7V3V9 entry or part of it Y141A): as the sequence (Q7V3V9 entry or part of it E146A) above, with Y117A, A122E counted along it

UrtA [6] = biological target: T6, UrtA (Prochlorococcus marinus, UniProt Q7V3V9, F192A)
T6 construct: 24-residue predicted signal peptide removed from 431-residue precursor (432 elsewhere in the source); C-terminal 6xHis tag, pET-22b, E. coli BL21(DE3); about 50 kDa; monomer; structure residues 38-431 described
T6 sequence (Q7V3V9 entry or part of it F192A): as the sequence (Q7V3V9 entry or part of it E146A) above, with A122E, F168A counted along it

NC(N)=O [urea]
Kd (UrtA [1]): 3050 ± 609 nM | Kd (UrtA [2]): 141 ± 11.2 nM | Kd (UrtA [3]): 1280 ± 639 nM | Kd (UrtA [4]): the mutant W120A was unable to bind to urea | Kd (UrtA [5]): 7950 ± 1220 nM | Kd (UrtA [6]): 114 ± 26.7 nM
